Earlier results on one compound are cited in US9468651B1, “Method of removing moles” (priority 2009, dated 2016).

For this data set the following is noted: property of the ingredient stated with a literature reference (Merck Index; Concise Encyclopedia of Chemical Technology).

In the case of `[K+].[OH-]` [Potassium hydroxide], the PH value is recorded as 13.5.
